The NIST ThermoML archive (doi:10.1021/je200793z)

Experiments:
[1] = xn = mol fraction of the nth substance listed

CCC(C)CO (stereo not given) [2-methyl-1-butanol]
Conditions | surface tension liquid-gas [mN/m]
293.15 K | 24.09
298.15 K | 23.61
303.15 K | 23.14
308.15 K | 22.69
313.15 K | 22.3
318.15 K | 21.86
323.15 K | 21.44

CCC(C)CO (stereo not given) [2-methyl-1-butanol] + CCO
surface tension liquid-gas [mN/m], [1]
Conditions | 293.15 K | 298.15 K | 303.15 K | 308.15 K | 313.15 K | 318.15 K | 323.15 K
x1 = 0.0268 | 22.48 | 22.1 | 21.71 | 21.39 | 21.04 | 20.68 | 20.36
x1 = 0.0549 | 22.65 | 22.25 | 21.9 | 21.56 | 21.22 | 20.9 | 20.55
x1 = 0.0845 | 22.76 | 22.37 | 21.99 | 21.67 | 21.33 | 21 | 20.64
x1 = 0.1156 | 22.86 | 22.47 | 22.1 | 21.75 | 21.44 | 21.08 | 20.73
x1 = 0.1484 | 22.96 | 22.54 | 22.17 | 21.82 | 21.49 | 21.12 | 20.81
x1 = 0.183 | 23.01 | 22.62 | 22.23 | 21.89 | 21.54 | 21.2 | 20.86
x1 = 0.2584 | 23.15 | 22.72 | 22.35 | 22 | 21.61 | 21.24 | 20.91
x1 = 0.3433 | 23.28 | 22.86 | 22.46 | 22.11 | 21.76 | 21.37 | 20.98
x1 = 0.4395 | 23.43 | 22.98 | 22.58 | 22.22 | 21.83 | 21.44 | 21.05
x1 = 0.5495 | 23.56 | 23.09 | 22.69 | 22.3 | 21.94 | 21.54 | 21.15
x1 = 0.6765 | 23.72 | 23.25 | 22.82 | 22.41 | 22.02 | 21.61 | 21.27
x1 = 0.8247 | 23.89 | 23.38 | 22.96 | 22.54 | 22.13 | 21.7 | 21.33
x1 = 1 | 24.09 | 23.61 | 23.14 | 22.69 | 22.3 | 21.86 | 21.44

CCC(C)(C)O [2-methylbutan-2-ol]
Conditions | surface tension liquid-gas [mN/m]
293.15 K | 24.04
298.15 K | 23.61
303.15 K | 23.14
308.15 K | 22.69
313.15 K | 22.3
318.15 K | 21.86
323.15 K | 21.44

CCC(C)(C)O [2-methylbutan-2-ol] + CCO
surface tension liquid-gas [mN/m], [1]
Conditions | 293.15 K | 298.15 K | 303.15 K | 308.15 K | 313.15 K | 318.15 K | 323.15 K
x1 = 0.0268 | 22.5 | 22.05 | 21.67 | 21.34 | 20.93 | 20.58 | 20.22
x1 = 0.0549 | 22.66 | 22.23 | 21.85 | 21.51 | 21.16 | 20.82 | 20.48
x1 = 0.0845 | 22.78 | 22.36 | 21.98 | 21.64 | 21.3 | 20.97 | 20.62
x1 = 0.1156 | 22.88 | 22.46 | 22.08 | 21.75 | 21.41 | 21.07 | 20.72
x1 = 0.1484 | 22.97 | 22.54 | 22.16 | 21.83 | 21.48 | 21.14 | 20.79
x1 = 0.183 | 23.04 | 22.61 | 22.23 | 21.89 | – | 21.2 | 20.84
x1 = 0.2584 | 23.16 | 22.73 | 22.34 | 21.99 | – | 21.28 | 20.92
x1 = 0.3433 | 23.28 | 22.84 | 22.45 | 22.09 | 21.73 | 21.36 | 21
x1 = 0.4395 | 23.41 | 22.97 | 22.56 | 22.19 | 21.82 | 21.45 | 21.08
x1 = 0.5495 | 23.55 | 23.1 | 22.68 | 22.29 | 21.92 | 21.53 | 21.16
x1 = 0.6765 | 23.7 | 23.24 | 22.81 | 22.4 | 22.02 | 21.62 | 21.23
x1 = 0.8247 | 23.88 | 23.41 | 22.96 | 22.53 | 22.15 | 21.73 | 21.34
x1 = 1 | 24.04 | 23.61 | 23.14 | 22.69 | 22.3 | 21.86 | 21.44

CC(C)CCO [3-methylbutan-1-ol]
Conditions | surface tension liquid-gas [mN/m]
293.15 K | 24.5
298.15 K | 24.15
303.15 K | 23.8
308.15 K | 23.36
313.15 K | 22.96
318.15 K | 22.57
323.15 K | 22.17

CC(C)CCO [3-methylbutan-1-ol] + CCO
surface tension liquid-gas [mN/m], [1]
Conditions | 293.15 K | 298.15 K | 303.15 K | 308.15 K | 313.15 K | 318.15 K | 323.15 K
x1 = 0.0268 | 22.56 | 22.09 | 21.7 | 21.35 | 20.95 | 20.56 | 20.17
x1 = 0.0549 | 22.78 | 22.32 | 21.94 | 21.59 | 21.19 | 20.81 | 20.44
x1 = 0.0845 | 22.98 | 22.54 | 22.17 | 21.81 | 21.41 | 21.04 | 20.67
x1 = 0.1156 | 23.17 | 22.73 | 22.36 | 22.01 | 21.62 | 21.24 | 20.87
x1 = 0.1484 | 23.33 | 22.9 | 22.53 | 22.17 | 21.78 | 21.41 | 21.04
x1 = 0.183 | 23.49 | 23.05 | 22.68 | 22.32 | 21.92 | 21.55 | 21.17
x1 = 0.2584 | 23.75 | 23.32 | 22.95 | 22.58 | 22.18 | 21.8 | 21.42
x1 = 0.3433 | 23.96 | 23.54 | 23.17 | 22.79 | 22.39 | 22.01 | 21.63
x1 = 0.4395 | 24.13 | 23.72 | 23.36 | 22.97 | 22.57 | 22.19 | 21.81
x1 = 0.5495 | 24.25 | 23.85 | 23.49 | 23.1 | 22.7 | 22.33 | 21.95
x1 = 0.6765 | 24.34 | 23.96 | 23.61 | 23.21 | 22.82 | 22.44 | 22.06
x1 = 0.8247 | 24.41 | 24.05 | 23.71 | 23.29 | 22.89 | 22.51 | 22.12
x1 = 1 | 24.5 | 24.15 | 23.8 | 23.36 | 22.96 | 22.57 | 22.17

CCO [ethanol]
Conditions | surface tension liquid-gas [mN/m]
293.15 K | 22.31
298.15 K | 21.82
303.15 K | 21.41
308.15 K | 21.04
313.15 K | 20.62
318.15 K | 20.22
323.15 K | 19.82

CCO [ethanol] + CC(C)CCO
[1], x2 = 0
Conditions | surface tension liquid-gas [mN/m]
293.15 K | 22.31
298.15 K | 21.82
303.15 K | 21.41
308.15 K | 21.04
313.15 K | 20.62
318.15 K | 20.22
323.15 K | 19.82

CCO [ethanol] + CCC(C)(C)O
[1], x2 = 0
Conditions | surface tension liquid-gas [mN/m]
293.15 K | 22.31
298.15 K | 21.82
303.15 K | 21.41
308.15 K | 21.04
313.15 K | 20.62
318.15 K | 20.22
323.15 K | 19.82

CCO [ethanol] + CCC(C)CO
[1], x2 = 0
Conditions | surface tension liquid-gas [mN/m]
293.15 K | 22.31
298.15 K | 21.82
303.15 K | 21.41
308.15 K | 21.04
313.15 K | 20.62
318.15 K | 20.22
323.15 K | 19.82
